Measurements from article PMC3772719 (Bioorganic & medicinal chemistry letters, 2013).
Entries after “also recorded” stand apart in the source; their conditions may differ.

What was measured:
[1] = test system: PPC-1 prostate cancer cells; settings: for synergy with TRAIL to reduce the number of viable cells: compound 5 μM, Figure 4; for synergy with TRAIL to reduce the number of viable cells / LD50 values for TRAIL in the presence of the compound: PPC-1 cells; for LD50 values for TRAIL in the presence of the compound: compound 5 μM for 4 h, then TRAIL 20 h
MDA-MB-231 cells = assay: Synergy with TNF to induce cell death in MDA-MB-231 cells; type: cell-based; settings: compound 5 μM, various concentrations of TNF, Figure S2
[2] = test system: human foreskin fibroblasts (HFF); type: cell-based; settings: compound 5 μM alone or in the presence of TRAIL (100 ng/mL), Figure 5
Cellular assay = type: cell-based; settings: Figure S1

| Structure (SMILES) | synergy with TRAIL to reduce the number of viable cells [1] | synergy with TNF to induce cell death (MDA-MB-231 cells) | LD50 values for TRAIL in the presence of the compound [1] | toxicity in normal cells [2] | toxicity as a single agent ([1]; single agent, Figures 4, 5 and S1) | activity in a cellular assay (Cellular assay) |
| --- | --- | --- | --- | --- | --- | --- |
| CN[C@@H](C)C(=O)N[C@H](C(=O)N1CCC[C@H]1C(=O)NNc1ccccc1)C(C)C [Compound 2a] | act synergistically with TRAIL |  |  |  |  |  |
| CN[C@@H](C)C(=O)N[C@H](C(=O)N1CCC[C@H]1C(=O)Nc1cccc2ccccc12)C(C)C [Compound 2b] | act synergistically with TRAIL | acts synergistically | 0.073 to 0.089 nM | No toxicity was observed |  |  |
| CN[C@@H](C)C(=O)N[C@H](C(=O)N1CCC[C@H]1C(=O)N[C@@H]1CCCc2ccccc21)C(C)C [Compound 2c] | act synergistically with TRAIL |  | 0.073 to 0.089 nM |  |  |  |
| CN[C@@H](C)C(=O)N[C@H](C(=O)N[C@@H](C)C(=O)Nc1cccc2ccccc12)C(C)C [Compound 8q] | sensitized TRAIL-resistant prostate cancer cells to apoptotic cell death; also recorded: act synergistically with TRAIL |  | 0.073 to 0.089 nM | No toxicity was observed | no toxicity |  |
| CC(C)[C@H](NC(=O)[C@H](C)N)C(=O)N[C@@H](C)C(=O)Nc1cccc2ccccc12 [Compound 8t] |  |  |  |  |  | did not show any activity |
